According to US10947242B2, “[1,2,4]triazolo[1,5and#8208;A]pyrimidine compounds as PDE2 inhibitors” (Janssen Pharmaceutica NV, priority 2016, dated 2021):
Read-outs that look alike come from different tables or passages of the source.

Columns and labels:
Format in all cases: biochemical
[1] = target: T1, Human recombinant PDE3A (hPDE3A) (Homo sapiens, UniProt Q14432); assay: In vitro assay PDE3A (SPA, 3H-cAMP hydrolysis); conditions: for IC50: hPDE3B pIC50, read-out: pIC50 (converted); for Emax: read-out: hPDE3B Emax, read-out: Emax;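 as to all read-outs here: the method names PDE3A and the table heading PDE3B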
T1 construct: purchased Scottish Biomedical; host or cells: Sf9 insect cells
T1 sequence (Q14432 whole entry): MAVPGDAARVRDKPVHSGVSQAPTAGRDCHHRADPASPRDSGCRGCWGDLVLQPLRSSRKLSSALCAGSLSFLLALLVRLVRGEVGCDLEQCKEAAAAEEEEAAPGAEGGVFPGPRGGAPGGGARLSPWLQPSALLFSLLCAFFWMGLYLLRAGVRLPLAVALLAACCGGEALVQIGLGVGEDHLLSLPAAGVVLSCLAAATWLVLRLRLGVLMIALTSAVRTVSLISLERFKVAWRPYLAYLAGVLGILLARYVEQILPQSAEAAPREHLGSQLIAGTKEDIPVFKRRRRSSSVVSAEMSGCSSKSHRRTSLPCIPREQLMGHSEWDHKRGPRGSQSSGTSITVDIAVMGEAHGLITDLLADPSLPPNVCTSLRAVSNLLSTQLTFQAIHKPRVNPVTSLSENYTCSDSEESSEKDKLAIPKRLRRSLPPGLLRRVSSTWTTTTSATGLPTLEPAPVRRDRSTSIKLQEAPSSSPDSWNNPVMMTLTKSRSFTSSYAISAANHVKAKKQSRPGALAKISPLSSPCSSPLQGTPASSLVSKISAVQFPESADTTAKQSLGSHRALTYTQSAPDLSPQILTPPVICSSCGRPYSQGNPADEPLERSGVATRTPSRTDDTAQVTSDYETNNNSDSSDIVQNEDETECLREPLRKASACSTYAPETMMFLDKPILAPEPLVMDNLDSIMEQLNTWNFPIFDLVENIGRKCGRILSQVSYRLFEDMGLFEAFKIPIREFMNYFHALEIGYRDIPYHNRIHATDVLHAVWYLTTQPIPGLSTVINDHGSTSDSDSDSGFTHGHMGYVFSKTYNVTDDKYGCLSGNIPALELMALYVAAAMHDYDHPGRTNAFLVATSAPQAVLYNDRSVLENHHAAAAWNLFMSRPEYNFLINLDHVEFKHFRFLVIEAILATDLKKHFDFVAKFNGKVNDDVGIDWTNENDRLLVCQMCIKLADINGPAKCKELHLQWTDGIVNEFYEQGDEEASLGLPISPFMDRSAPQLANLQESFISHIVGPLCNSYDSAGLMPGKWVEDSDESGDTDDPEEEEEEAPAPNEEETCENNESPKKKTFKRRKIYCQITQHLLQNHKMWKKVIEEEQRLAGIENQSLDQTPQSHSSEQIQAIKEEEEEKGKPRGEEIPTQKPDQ
In short: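 Human PDE3A, cloned from brain, as partially purified Sf9 lysate. Substrate 0.4 μM cAMP plus [3H]-cAMP (2.4 μCi/ml final) in 50 mM Tris pH 7.8, 8.3 mM MgCl2, 1.7 mM EGTA, 60 min at room temperature, 1% DMSO final. Hydrolysis read by SPA scintillation counting against no-enzyme blanks and DMSO controls.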

[2] = target: T2, Human recombinant PDE10A (hPDE10A) (Homo sapiens, UniProt Q9Y233); assay: In vitro assay PDE10A, human clone (SPA, 3H-cAMP hydrolysis)
T2 construct: His tag (inferred from metal chelate purification); made in house; host or cells: Sf9 insect cells (baculovirus)
T2 sequence (Q9Y233 267-1055): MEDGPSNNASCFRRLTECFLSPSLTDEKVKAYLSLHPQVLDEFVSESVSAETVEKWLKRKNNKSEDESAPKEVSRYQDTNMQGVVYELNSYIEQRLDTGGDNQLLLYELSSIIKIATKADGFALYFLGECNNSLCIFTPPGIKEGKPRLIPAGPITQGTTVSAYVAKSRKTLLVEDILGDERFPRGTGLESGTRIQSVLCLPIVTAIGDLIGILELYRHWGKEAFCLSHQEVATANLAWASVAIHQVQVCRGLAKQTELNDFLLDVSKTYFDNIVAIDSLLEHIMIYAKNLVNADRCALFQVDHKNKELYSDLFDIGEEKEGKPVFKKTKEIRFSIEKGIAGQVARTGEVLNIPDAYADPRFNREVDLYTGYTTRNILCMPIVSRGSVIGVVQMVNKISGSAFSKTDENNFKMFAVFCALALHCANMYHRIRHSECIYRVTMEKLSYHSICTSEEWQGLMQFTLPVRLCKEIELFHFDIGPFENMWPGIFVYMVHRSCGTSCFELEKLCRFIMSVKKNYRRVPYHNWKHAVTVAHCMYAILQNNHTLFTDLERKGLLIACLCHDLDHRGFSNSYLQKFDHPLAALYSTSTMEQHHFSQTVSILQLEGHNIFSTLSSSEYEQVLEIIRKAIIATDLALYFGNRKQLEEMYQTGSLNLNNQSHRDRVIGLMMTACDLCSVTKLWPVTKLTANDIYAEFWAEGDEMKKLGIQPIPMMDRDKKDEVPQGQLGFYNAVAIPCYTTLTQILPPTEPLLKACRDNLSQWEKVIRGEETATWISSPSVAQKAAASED
In short: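 Human recombinant PDE10A was expressed in Sf9 cells via baculovirus and incubated with compound in 50 mM Tris pH 7.8, 8.3 mM MgCl2, 1.7 mM EGTA. Substrate was 60 nM cAMP plus 0.008 μCi 3H-cAMP for 60 min at room temperature, read by SPA scintillation counting. Controls used 1% DMSO, and blanks omitted enzyme.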

[3] = target: T3, Human recombinant PDE2A (hPDE2A) (Homo sapiens, UniProt O00408); assay: In vitro assay PDE2A (SPA, 3H-cGMP hydrolysis); conditions: for IC50: read-out: hPDE2A pIC50 (converted); for Emax: read-out: hPDE2A Emax
T3 construct: His tag (inferred from metal chelate purification); made in house; host or cells: Sf9 insect cells (baculovirus)
T3 sequence (O00408 whole entry): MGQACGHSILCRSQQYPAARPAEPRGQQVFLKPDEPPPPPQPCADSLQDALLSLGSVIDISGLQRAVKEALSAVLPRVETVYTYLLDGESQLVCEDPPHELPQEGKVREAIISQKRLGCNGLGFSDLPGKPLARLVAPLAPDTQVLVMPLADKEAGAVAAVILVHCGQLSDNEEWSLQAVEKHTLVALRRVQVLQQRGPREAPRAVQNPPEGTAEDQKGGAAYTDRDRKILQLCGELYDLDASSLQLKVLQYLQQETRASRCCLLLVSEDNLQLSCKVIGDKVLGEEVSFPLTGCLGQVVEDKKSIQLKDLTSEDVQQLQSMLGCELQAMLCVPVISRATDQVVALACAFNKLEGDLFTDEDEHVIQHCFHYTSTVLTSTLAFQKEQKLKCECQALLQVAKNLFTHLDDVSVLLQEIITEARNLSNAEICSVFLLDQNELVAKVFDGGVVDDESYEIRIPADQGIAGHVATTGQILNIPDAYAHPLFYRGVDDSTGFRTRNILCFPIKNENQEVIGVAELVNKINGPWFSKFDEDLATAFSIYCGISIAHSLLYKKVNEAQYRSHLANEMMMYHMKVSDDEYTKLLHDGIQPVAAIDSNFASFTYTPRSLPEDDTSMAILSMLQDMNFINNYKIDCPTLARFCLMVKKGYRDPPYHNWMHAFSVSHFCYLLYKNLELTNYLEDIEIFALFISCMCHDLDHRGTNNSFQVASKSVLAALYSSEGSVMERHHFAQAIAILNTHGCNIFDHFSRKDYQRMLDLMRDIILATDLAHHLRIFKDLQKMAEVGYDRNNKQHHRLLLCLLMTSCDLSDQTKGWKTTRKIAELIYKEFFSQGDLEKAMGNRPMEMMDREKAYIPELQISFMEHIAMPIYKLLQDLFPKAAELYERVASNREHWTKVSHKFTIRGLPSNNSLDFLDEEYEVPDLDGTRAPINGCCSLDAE

[4] = human clone (h), default, read-out: hPDE10A2 Emax
[5] = human clone (h), default, read-out: hPDE10A2 pIC50 (converted)
[6] = human recombinant PDE2A, 10 μM cGMP substrate
[7] = human clone by default (no (r) mark), read-out: hPDE10A2 or rPDE10A2 Emax
[8] = human clone by default (no (r) mark), read-out: hPDE10A2 or rPDE10A2 pIC50 (converted)

SMILES | IC50 [1] | Emax [1] | Emax [2, 4] | IC50 [2, 5] | IC50 [3, 6] | Emax ([3]; human recombinant PDE2A) | Emax [3] | IC50 [3] | hPDE3B Emax [1] | hPDE10A2 Emax ([2]; human clone (h), default) | hPDE10A2 pIC50 ([2]; human clone (h), default) | hPDE2A Emax [3] | hPDE2A pIC50 [3] | hPDE2A Emax ([3]; human recombinant PDE2A) | hPDE2A pIC50 [3, 6] | Emax [2, 7] | IC50 [2, 8]
Cc1c(C(=O)N2CC[C@@H](C)[C@H](c3cc(C(F)F)nc4ncnn34)C2)sc2ccccc12 [Compound 119] | 61.7 nM | 101% | 99% | 77.6 nM | 1.74 nM | 100% | 100% | 1.74 nM | – | – | – | – | – | – | – | – | –
C[C@@H]1CCN(C(=O)c2cccc3c2OC(F)(F)O3)C[C@H]1c1cc(C(F)F)nc2ncnn12 [Compound 63] | 6920 nM | 60% | 89% | 871 nM | 7.24 nM | 100% | 100% | 7.24 nM | – | – | – | – | – | – | – | – | –
Cc1cc(C(=O)N2CC[C@@H](C)[C@H](c3cc(C#N)nc4ncnn34)C2)cc(C)n1 [Compound 26a] | – | – | – | – | – | – | – | – | 0 | 7 | <5 | 21 | <5 | 21 | <5 | – | –
CCCOc1cccnc1C(=O)N1CC[C@@H](C)[C@H](c2cc(C(F)F)nc3ncnn23)C1 [Compound 246] | > 10000 nM | 25% | 44% | > 10000 nM | – | – | 98% | 126 nM | – | – | – | – | – | – | – | 44% | > 10000 nM
COc1nc(C)c(C(=O)N2CC[C@@H](C)[C@H](c3cc(C(F)F)nc4ncnn34)C2)s1 [Compound 185] | 3310 nM | 79% | 87% | 1200 nM | – | – | 98% | 21.9 nM | – | – | – | – | – | – | – | – | –
C[C@@H]1CCN(C(=O)c2c[nH]c3ccc(F)cc23)C[C@H]1c1cc(C(F)F)nc2ncnn12 [Compound 112] | 1780 nM | 84% | 99% | 47.9 nM | 1 nM | 101% | 101% | 1 nM | – | – | – | – | – | – | – | – | –
Cc1cc(C(=O)N2CC[C@@H](C)[C@H](c3cc(C(F)F)nc4ncnn34)C2)nc(C)n1 [Compound 141] | > 10000 nM | 12% | 81% | 2040 nM | 29.5 nM | 100% | 100% | 29.5 nM | – | – | – | – | – | – | – | – | –
Cc1cc(C(=O)N2CC[C@@H](C)[C@@](F)(c3cc(C(F)F)nc4ncnn34)C2)cc(C)n1 [Compound 81] | > 10000 nM | 17% | 1% | > 10000 nM | 7080 nM | 59% | 59% | 7080 nM | – | – | – | – | – | – | – | – | –
C[C@@H]1CCN(C(=O)c2cc3ccccc3n2C)C[C@H]1c1cc(C(F)F)nc2ncnn12 [Compound 114] | 89.1 nM | 98% | 101% | 45.7 nM | 1.05 nM | 100% | 100% | 1.05 nM | – | – | – | – | – | – | – | – | –
Cc1cc([C@@H]2CN(C(=O)c3cc4ccccc4o3)CC[C@H]2C)n2ncnc2n1 [Compound 8] | 275 nM | 97% | 100% | 11.2 nM | 1.1 nM | 100% | 100% | 1.1 nM | – | – | – | – | – | – | – | – | –
O=C(c1cc(F)cc(F)c1)N1[C@H]2CC[C@H](c3cc(C(F)F)nc4ncnn34)[C@@H]1CC2 [Compound 341] | > 10000 nM | 33% | – | – | – | – | 97% | 141 nM | – | – | – | – | – | – | – | 63% | 5010 nM
CCCC[C@@H]1CCN(C(=O)c2cc(C)nc(C)c2)C[C@H]1c1cc(C(F)F)nc2ncnn12 (mixture of isomers) [Compound 44] | > 10000 nM | 39% | 79% | 2570 nM | 9.55 nM | 100% | 100% | 9.55 nM | – | – | – | – | – | – | – | – | –
Cc1cc([C@@H]2CN(C(=O)c3cccc4nc(C)oc34)CC[C@H]2C)n2ncnc2n1 [Compound 19] | 3090 nM | 79% | 96% | 129 nM | 10.5 nM | 101% | 101% | 10.5 nM | – | – | – | – | – | – | – | – | –
C[C@@H]1CCN(C(=O)c2cnccn2)C[C@H]1c1cc(C(F)F)nc2ncnn12 [Compound 257] | > 10000 nM | 15% | 45% | > 10000 nM | – | – | 95% | 263 nM | – | – | – | – | – | – | – | 45% | > 10000 nM
